Results on 29 compounds are retold here after patent publication US8987314B2, “Amide, urea or sulfone amide linked benzothiazole inhibitors of endothelial lipase” (Bristol-Myers Squibb Company, priority 2012, dated 2015).

Molecules are shown by their SMILES.

Chain of Endothelial lipase (EL) (Q9Y5X9 21-500): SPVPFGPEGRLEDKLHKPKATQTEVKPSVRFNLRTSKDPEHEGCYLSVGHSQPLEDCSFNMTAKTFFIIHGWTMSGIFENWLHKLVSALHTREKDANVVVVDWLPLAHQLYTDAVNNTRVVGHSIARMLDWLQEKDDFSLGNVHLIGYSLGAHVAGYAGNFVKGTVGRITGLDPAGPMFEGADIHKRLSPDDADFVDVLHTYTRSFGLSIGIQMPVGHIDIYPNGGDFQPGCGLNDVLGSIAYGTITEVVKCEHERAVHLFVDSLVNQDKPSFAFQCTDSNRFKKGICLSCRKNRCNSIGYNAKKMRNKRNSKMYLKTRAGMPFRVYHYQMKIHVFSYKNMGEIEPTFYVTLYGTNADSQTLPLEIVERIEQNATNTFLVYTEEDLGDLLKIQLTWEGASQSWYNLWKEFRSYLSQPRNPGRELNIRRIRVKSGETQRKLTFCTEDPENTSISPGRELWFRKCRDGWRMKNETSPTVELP

This assay has as its target Endothelial lipase (EL) (Homo sapiens (Human), UniProt Q9Y5X9). In words: EL assay: endothelial lipase activity with fluorescent substrate A10070 in DMPG vesicles. The class given is biochemical. Conditions: EL from conditioned media of HT-1080 cells; 30 min incubation with compound at 37° C.; A10070/DMPG vesicles. Here is the method: Endothelial lipase (EL) and hepatic lipase (HL) activities were measured using a fluorescent substrate, A10070, (Invitrogen, CA) doped into an artificial vesicle containing DMPG (Avanti Polar Lipids) as the excipient. Vesicles were prepared by combining 571 μL of 29 mM DMPG in a 1:1 mixture of MeOH and CHCl3 with 2000 μL of 1 mM A10070 in a 1:1 mixture of MeOH and CHCl3. The mixture was dried under nitrogen in multiple vials then resuspended in 20 mL total volume of 50 mM HEPES pH 8.0 buffer containing 50 mM NaCl and 0.2 mM EDTA. The sample was allowed to sit at room temperature for 15 min and then was sonicated 3×4 mins on ice with a Branson Sonicator using duty cycle 1. This preparation provides vesicles with a mole fraction of 0.11 for the FRET substrate.
The enzymatic assay was measured using 384-well white Optiplates. Each well contained 20 μL of assay buffer (50 mM HEPES pH 8.0, 50 mM NaCl and 1 mM CaCl2) and 0.25 μL of a DMSO solution containing a compound of interest. EL or HL (10 μL) was added and allowed to incubate with the compound for 30 min at 37° C. The source of EL was conditioned media obtained from HT-1080 cells that were transformed using RAGE technology (Athersys) to overexpress endogenous EL, and HL was partially purified from conditioned media obtained from COS cells overexpressing HL. The reaction was started by the addition of 10 μL of a 1:10 dilution of vesicles. The final total reaction volume was […]. The reaction rates were measured on a Gemini plate reader with an excitation wavelength of 490 nm and an emission wavelength of 530 nm. Readings were taken over a period of 60 minutes, and the slope between 300 and 900 secs of the readout was used to calculate the rate of the reaction.
Take `NS(=O)(=O)CCNC(=O)C(c1nc2c(F)cc(-c3ccccc3)cc2s1)S(=O)(=O)CCC(F)(F)F` (centres unmarked) [Example B26, 2-(4-Fluoro-6-phenylbenzo[d]thiazol-2-yl)-N-(2-sulfamoylethyl)-2-((3,3,3-trifluoropropyl)sulfonyl)acetamide]: the IC50 was less than 0.01 µM.

Regarding `NS(=O)(=O)CCNC(=O)C(NC(=O)c1ccc(C(F)(F)F)cc1)c1nc2ccc(-c3ccc(F)nc3)cc2s1` (centres unmarked) [Example A1, N-(1-(6-(6-Fluoropyridin-3-yl)benzo[d]thiazol-2-yl)-2-oxo-2-((2-sulfamoylethyl)amino)ethyl)-4-(trifluoromethyl)benzamide], the half-maximal inhibitory concentration (IC50) turned out to be 0.035 µM.

For the compound `CS(=O)(=O)CCNC(=O)C(c1nc2ccc(-c3ccnc(F)c3)cc2s1)S(C)(=O)=O` (centres unmarked) [Example B23, 2-(6-(2-Fluoro-4-pyridinyl)-1,3-benzothiazol-2-yl)-2-(methylsulfonyl)-N-(2-(methylsulfonyl)ethyl)acetamide], the IC50 is 0.21 µM.

`CS(=O)(=O)C(C(=O)NCCS(N)(=O)=O)c1nc2ccc(-c3ccnc(Cl)c3)cc2s1` (centres unmarked) [Example B9, 2-(6-(2-chloro-4-pyridinyl)-1,3-benzothiazol-2-yl)-2-(methylsulfonyl)-N-(2-sulfamoylethyl)acetamide]: the concentration for half-maximal inhibition (IC50) was less than 0.01 µM.

`Cc1nnc(CNC(=O)C(c2nc3cc(C)c(-c4ccccc4)cc3s2)S(=O)(=O)Cc2ccccc2)o1` (centres unmarked) [Example B28, 2-(benzylsulfonyl)-N-((5-methyl-1,3,4-oxadiazol-2-yl)methyl)-2-(5-methyl-6-phenyl-1,3-benzothiazol-2-yl)acetamide]: the IC50 was found to be 0.012 µM.

`CS(=O)(=O)C(C(=O)NCCS(=O)(=O)NCC(F)(F)F)c1nc2ccc(-c3ccnc(F)c3)cc2s1` (centres unmarked) [Example B30, 2-(6-(2-Fluoro-4-pyridinyl)-1,3-benzothiazol-2-yl)-2-(methylsulfonyl)-N-(2-((2,2,2-trifluoroethyl)sulfamoyl)ethyl)acetamide]: the IC50 is 0.277 µM.

As for `NC(=O)c1ccc(-c2cc3sc(C(C(=O)N[C@@H]4CCNC4=O)S(=O)(=O)Cc4ccccc4)nc3cc2F)cc1` (stereo partly drawn) [Example B27, 4-(2-(1-(benzylsulfonyl)-2-oxo-2-(((3R)-2-oxo-3-pyrrolidinyl)amino)ethyl)-5-fluoro-1,3-benzothiazol-6-yl)benzamide], the IC50 is 0.093 µM.

As to `NS(=O)(=O)CCNC(=O)C(NC(=O)c1cccnc1)c1nc2ccc(-c3ccc(C(=O)N4CCOCC4)cc3)cc2s1` (centres unmarked) [Example A6, N-(1-(6-(4-(morpholine-4-carbonyl)phenyl)benzo[d]thiazol-2-yl)-2-oxo-2-((2-sulfamoylethyl)amino)ethyl)nicotinamide], the IC50 was less than 0.01 µM.

With `CC(=O)NC(C(=O)NCc1nnc(C)o1)c1nc2ccc(-c3ccc(F)cc3)cc2s1` (centres unmarked) [Example A8, 2-acetamido-2-(6-(4-fluorophenyl)benzo[d]thiazol-2-yl)-N-((5-methyl-1,3,4-oxadiazol-2-yl)methyl)acetamide], the half-maximal inhibitory concentration (IC50) was less than 0.01 µM.

For `CN(C)S(=O)(=O)c1ccc(-c2ccc3nc(C(C(=O)NCCS(N)(=O)=O)S(C)(=O)=O)sc3c2)cc1` (centres unmarked) [Example B17, 2-(6-(4-(dimethylsulfamoyl)phenyl)-1,3-benzothiazol-2-yl)-2-(methylsulfonyl)-N-(2-sulfamoylethyl)acetamide], the IC50 is less than 0.01 µM.

On to `CS(=O)(=O)C(C(=O)NCCS(N)(=O)=O)c1nc2ccc(-c3ccc(Cl)nc3)cc2s1` (centres unmarked) [Example B10, 2-(6-(6-chloro-3-pyridinyl)-1,3-benzothiazol-2-yl)-2-(methylsulfonyl)-N-(2-sulfamoylethyl)acetamide], for which the IC50 is less than 0.01 µM.

Take `CCCC(=O)NC(C(=O)NCCS(N)(=O)=O)c1nc2ccc(-c3ccc(C(=O)N4CCOCC4)cc3)cc2s1` (centres unmarked) [Example A5, N-(1-(6-(4-(morpholine-4-carbonyl)phenyl)benzo[d]thiazol-2-yl)-2-oxo-2-((2-sulfamoylethyl)amino)ethyl)butyramide]: the IC50 was less than 0.01 µM.

As to `CS(=O)(=O)C(C(=O)NCCS(N)(=O)=O)c1nc2ccc(-c3ccc(CN4CCOCC4)cc3)cc2s1` (centres unmarked) [Example B13, 2-(methylsulfonyl)-2-(6-(4-(4-morpholinylmethyl)phenyl)-1,3-benzothiazol-2-yl)-N-(2-sulfamoylethyl)acetamide], the IC50 was less than 0.01 µM.

On to `COc1ccc(-c2ccc3nc(C(C(=O)NCCS(N)(=O)=O)S(C)(=O)=O)sc3c2)cn1` (centres unmarked) [Example B19, 2-(6-(6-methoxy-3-pyridinyl)-1,3-benzothiazol-2-yl)-2-(methylsulfonyl)-N-(2-sulfamoylethyl)acetamide], for which the IC50 was less than 0.01 µM.

Regarding `CC(=O)Nc1ccc(-c2ccc3nc(C(C(=O)NCCS(N)(=O)=O)S(C)(=O)=O)sc3c2)cc1` (centres unmarked) [Example B16, 2-(6-(4-acetamidophenyl)-1,3-benzothiazol-2-yl)-2-(methylsulfonyl)-N-(2-sulfamoylethyl)acetamide], the IC50 is 0.04 µM.

Consider `CC(C)S(=O)(=O)C(C(=O)NCCS(N)(=O)=O)c1nc2ccc(-c3ccc(F)nc3)cc2s1` (centres unmarked) [Example B12, 2-(6-(6-fluoro-3-pyridinyl)-1,3-benzothiazol-2-yl)-2-(isopropylsulfonyl)-N-(2-sulfamoylethyl)acetamide], for which the IC50 is less than 0.01 µM.

For `CNc1ccc(-c2ccc3nc(C(C(=O)NCCS(N)(=O)=O)S(C)(=O)=O)sc3c2)cc1` (centres unmarked) [Example B18, 2-(6-(4-(methylamino)phenyl)-1,3-benzothiazol-2-yl)-2-(methylsulfonyl)-N-(2-sulfamoylethyl)acetamide], the IC50 stood at 0.013 µM.

In the case of `C=CCS(=O)(=O)C(C(=O)NCCS(N)(=O)=O)c1nc2ccc(-c3ccc(CN4CCOCC4)cc3)cc2s1` (centres unmarked) [Example B14, 2-(allylsulfonyl)-2-(6-(4-(4-morpholinylmethyl)phenyl)-1,3-benzothiazol-2-yl)-N-(2-sulfamoylethyl)acetamide], the IC50 was less than 0.01 µM.

Turning to `CS(=O)(=O)C(C(=O)NCCS(N)(=O)=O)c1nc2ccc(-c3ccc(F)nc3)cc2s1` (centres unmarked) [Example B3, 2-(6-(6-fluoro-3-pyridinyl)-1,3-benzothiazol-2-yl)-2-(methylsulfonyl)-N-(2-sulfamoylethyl)acetamide], the IC50 was less than 0.01 µM.

Take `CCCS(=O)(=O)C(C(=O)NCCS(N)(=O)=O)c1nc2ccc(-c3ccnc(F)c3)cc2s1` (centres unmarked) [Example B15, 2-(6-(2-fluoro-4-pyridinyl)-1,3-benzothiazol-2-yl)-2-(propylsulfonyl)-N-(2-sulfamoylethyl)acetamide]: the IC50 was less than 0.01 µM.

Take `CS(=O)(=O)C(C(=O)NCCS(N)(=O)=O)c1nc2ccc(-c3ccccc3)cc2s1` (centres unmarked) [Example B1, 2-(Methylsulfonyl)-2-(6-phenylbenzo[d]thiazol-2-yl)-N-(2-sulfamoylethyl)acetamide]: the IC50 is less than 0.01 µM.

For the compound `CS(=O)(=O)C(C(=O)NCCS(N)(=O)=O)c1nc2ccc(-c3ccnc(F)c3)cc2s1` (centres unmarked) [Example B8, 2-(6-(2-fluoro-4-pyridinyl)-1,3-benzothiazol-2-yl)-2-(methylsulfonyl)-N-(2-sulfamoylethyl)acetamide], the half-inhibitory concentration (IC50) was less than 0.01 µM.

Regarding `Cc1nnc(CNC(=O)C(NC(=O)NCc2ccccc2)c2nc3ccc(-c4ccc(F)cc4)cc3s2)o1` (centres unmarked) [Example A9, 2-(3-Benzylureido)-2-(6-(4-fluorophenyl)benzo[d]thiazol-2-yl)-N-((5-methyl-1,3,4-oxadiazol-2-yl)methyl)acetamide], the IC50 is 0.05 µM.

For the compound `Cc1noc(C)c1-c1ccc2nc(C(C(=O)NCCS(N)(=O)=O)S(C)(=O)=O)sc2c1` (centres unmarked) [Example B4, 2-(6-(3,5-dimethyl-4-isoxazolyl)-1,3-benzothiazol-2-yl)-2-(methylsulfonyl)-N-(2-sulfamoylethyl)acetamide], the IC50 came out at 0.013 µM.

Take `CCCC(=O)NC(C(=O)NCCS(N)(=O)=O)c1nc2ccc(-c3ccc(F)nc3)cc2s1` (centres unmarked) [Example A3, N-(1-(6-(6-fluoropyridin-3-yl)benzo[d]thiazol-2-yl)-2-oxo-2-((2-sulfamoylethyl)amino)ethyl)butyramide]: the IC50 is less than 0.01 µM.

Take `CS(=O)(=O)C(C(=O)NCCS(N)(=O)=O)c1nc2ccc(-c3ccc(-n4cccn4)cc3)cc2s1` (centres unmarked) [Example B21, 2-(methylsulfonyl)-2-(6-(4-(1H-pyrazol-1-yl)phenyl)-1,3-benzothiazol-2-yl)-N-(2-sulfamoylethyl)acetamide]: the IC50 is less than 0.01 µM.

Take `CS(=O)(=O)C(C(=O)NCCS(N)(=O)=O)c1nc2ccc(-c3ccc(N4CCOCC4)cc3)cc2s1` (centres unmarked) [Example B20, 2-(methylsulfonyl)-2-(6-(4-(4-morpholinyl)phenyl)-1,3-benzothiazol-2-yl)-N-(2-sulfamoylethyl)acetamide]: the IC50 is less than 0.01 µM.

In the case of `NS(=O)(=O)CCNC(=O)C(NC(=O)c1ccc(C(F)(F)F)cc1)c1nc2ccc(-c3ccc(C(=O)N4CCOCC4)cc3)cc2s1` (centres unmarked) [Example A7], the IC50 is less than 0.01 µM.

As to `CS(=O)(=O)C(C(=O)NCCS(=O)(=O)Nc1ccccc1)c1nc2ccc(-c3ccnc(F)c3)cc2s1` (centres unmarked) [Example B24, 2-(6-(2-fluoro-4-pyridinyl)-1,3-benzothiazol-2-yl)-2-(methylsulfonyl)-N-(2-(phenylsulfamoyl)ethyl)acetamide], the IC50 was 0.035 µM.
